Data taken from ChEMBL document CHEMBL1128611, “Evolution of a series of non-quinoline leukotriene D4 receptor antagonist; synthesis and sar of benzothiazoles and thiazoles substituted benzyl alcohols as potent LTD4 antagonists” (Bioorg Med Chem Lett, 1995).
Several values for one entry are separate records, joined by “and”; a condition that tells them apart may be missing. Identical values can stand only once.

How the values were obtained:
[1] = target: T1, Cysteinyl leukotriene receptor 1 (Cavia porcellus, UniProt Q2NNR5); assay: Inhibition of [3H]LTD4 binding on guinea-pig lung membranes; type: tissue-based, Membrane
T1 sequence (Q2NNR5 whole entry): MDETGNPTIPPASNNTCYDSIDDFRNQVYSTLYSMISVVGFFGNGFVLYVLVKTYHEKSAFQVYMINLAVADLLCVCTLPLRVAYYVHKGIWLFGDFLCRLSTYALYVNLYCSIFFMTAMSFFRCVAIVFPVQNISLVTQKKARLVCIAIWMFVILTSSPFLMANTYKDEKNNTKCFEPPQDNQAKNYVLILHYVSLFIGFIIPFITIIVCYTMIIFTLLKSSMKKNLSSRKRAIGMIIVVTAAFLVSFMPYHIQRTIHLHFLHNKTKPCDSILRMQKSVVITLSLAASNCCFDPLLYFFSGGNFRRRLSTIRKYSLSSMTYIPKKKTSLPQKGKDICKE

Cavia porcellus = species: Cavia porcellus; assay: Inhibition of LTD4-induced contraction of guinea-pig tracheal chains; type: functional, Trachea
Mus musculus [2] = assay: […] effect on peroximal enzyme induction (PEI) over control animals (mice) after 4 days dosing at 400 mg/Kg perorally; type: functional
Mus musculus [3] = assay: Compound was evaluated for its effect on the liver weight in mice after 4 days dosing at 400 mg/Kg perorally; type: functional
Monkey [4] = assay: […] inhibition of peptidoleukotriene -induced reduction in dynamic compliance in conscious squirrel monkey at a dose of 0.03 mg/Kg; type: functional
Monkey [5] = assay: Inhibition of LTD4-induced bronchoconstriction in conscious squirrel monkey; type: functional
Mus musculus [6] = assay: […] effect on the liver weight in mice after 4 days dosing at 400 mg/Kg perorally; type: functional
Monkey [7] = assay: […] inhibition of peptidoleukotriene -induced reduction in dynamic compliance in conscious squirrel monkey at a dose of 0.1 mg/Kg; type: functional

| SMILES | IC50 [1] | further results |
| --- | --- | --- |
| CC(C)(O)c1ccccc1CC[C@@H](SCC1(CC(=O)O)CC1)c1cccc(/C=C/c2nc(-c3ccc(F)cc3)cs2)c1 | 6.7 nM and 15.4 nM |  |
| CC(CC(F)(F)F)c1csc(/C=C/c2cccc([C@@H](CCc3ccccc3C(C)(C)O)SCC3(CC(=O)O)CC3)c2)n1 (some centres undefined) | 0.7 nM and 1 nM |  |
| CC(C)(O)c1ccccc1CC[C@@H](SCC1(CC(=O)O)CC1)c1cccc(/C=C/c2nc3c(s2)CCCC3)c1 | 1.5 nM |  |
| CC(C)(O)c1ccccc1CC[C@@H](SCC1(CC(=O)O)CC1)c1cccc(/C=C/c2nc(C3CC3)cs2)c1 | 1.7 nM and 3.3 nM |  |
| CC(C)c1nc(/C=C/c2cccc([C@@H](CCc3ccccc3C(C)(C)O)SCC3(CC(=O)O)CC3)c2)sc1Cl | 170 nM and 197 nM |  |
| CC(C)(O)c1ccccc1CC[C@@H](SCC1(CC(=O)O)CC1)c1cccc(/C=C/c2nc3cc(Cl)ccc3s2)c1 | 7.7 nM and 6 nM |  |
| CC(C)(O)c1ccccc1CC[C@@H](SCC1(CC(=O)O)CC1)c1cccc(/C=C/c2nc(C3CCCCC3)cs2)c1 | 2.1 nM |  |
| CC(C)(O)c1ccccc1CC[C@@H](SCC1(CC(=O)O)CC1)c1cccc(/C=C/c2nc(CSc3ccccc3)cs2)c1 | 42.2 nM |  |
| COc1ccc(-c2csc(/C=C/c3cccc([C@@H](CCc4ccccc4C(C)(C)O)SCC4(CC(=O)O)CC4)c3)n2)cc1 | 98.7 nM and 138 nM |  |
| Cc1sc(/C=C/c2cccc([C@@H](CCc3ccccc3C(C)(C)O)SCC3(CC(=O)O)CC3)c2)nc1C(C)C | 12.8 nM and 5.2 nM |  |
| CC(C)(O)c1ccccc1CC[C@@H](SCC1(CC(=O)O)CC1)c1cccc(/C=C/c2nc3ccccc3s2)c1 | 16.8 nM |  |
| CC(C)(O)c1ccccc1CC[C@@H](SCC1(CC(=O)O)CC1)c1cccc(/C=C/c2nc3cc(C(F)(F)F)ccc3s2)c1 | 7.5 nM and 11.6 nM |  |
| CC(C)(O)c1ccccc1CC[C@@H](SCC1(CC(=O)O)CC1)c1cccc(/C=C/c2nccs2)c1 | 381 nM |  |
| CC(C)c1csc(/C=C/c2cccc([C@@H](CCc3ccccc3C(C)(C)O)SCC3(CC(=O)O)CC3)c2)n1 | 1.9 nM | pKb (Cavia porcellus): 9.1; PEI (Mus musculus [2]): 62; Weight (Mus musculus [3]): 9%; Cdyn (Monkey [4]): -8%; RL (Monkey [5]): 40% |
| CC(C)(C)c1csc(/C=C/c2cccc([C@@H](CCc3ccccc3C(C)(C)O)SCC3(CC(=O)O)CC3)c2)n1 | 2 nM and 3.3 nM |  |
| CC(C)(O)c1ccccc1CC[C@@H](SCC1(CC(=O)O)CC1)c1cccc(/C=C/c2nc(C3CCC3)cs2)c1 | 0.6 nM and 0.5 nM |  |
| CC(C)(O)c1ccccc1CC[C@@H](SCC1(CC(=O)O)CC1)c1cccc(/C=C/c2nc3cc(F)c(F)cc3s2)c1 | 0.8 nM |  |
| COc1ccc2nc(/C=C/c3cccc([C@@H](CCc4ccccc4C(C)(C)O)SCC4(CC(=O)O)CC4)c3)sc2c1 | 47.6 nM |  |
| CC(C)(O)c1ccccc1CC[C@@H](SCC1(CC(=O)O)CC1)c1cccc(/C=C/c2nc(-c3ccccc3)cs2)c1 | 11 nM and 6.7 nM |  |
| CC(C)(O)c1ccccc1CC[C@@H](SCC1(CC(=O)O)CC1)c1cccc(/C=C/c2nc3cc(F)ccc3s2)c1 | 3.3 nM | pKb (Cavia porcellus): 8.8; PEI (Mus musculus [2]): 120; Weight (Mus musculus [6]): 12%; Cdyn (Monkey [4]): 100%; RL (Monkey [5]): 73% |
| CC(C)(O)c1ccccc1CC[C@@H](SCC1(CC(=O)O)CC1)c1cccc(/C=C/c2nc(C3CCCC3)cs2)c1 | 1.4 nM and 0.8 nM |  |
| CC(C)(O)c1ccccc1CC[C@@H](SCC1(CC(=O)O)CC1)c1cccc(/C=C/c2nc(-c3ccc(Cl)cc3)cs2)c1 | 79.3 nM and 99.7 nM |  |
| CC(C)(O)c1ccccc1CC[C@@H](SCC1(CC(=O)O)CC1)c1cccc(/C=C/c2nc3c(s2)CCC3)c1 | 3 nM and 4.6 nM |  |
| CN(C)C(=O)CCS[C@H](SCCC(=O)O)c1cccc(/C=C/c2ccc3ccc(Cl)cc3n2)c1 [VERLUKAST] | 3.9 nM | pKb (Cavia porcellus): 8.9; PEI (Mus musculus [2]): 65; Weight (Mus musculus [6]): 0%; RL (Monkey [5]): 59%; Cdyn (Monkey [7]): 56% |
